Assay results as given in patent publication US10662193B2, “Carbazole and carboline compounds for use in the diagnosis, treatment, alleviation or prevention of disorders associated with amyloid or amyloid-like proteins” (AC IMMUNE SA, priority 2014, dated 2020).

Each compound was assayed on tau tangles on AD brain section (assay: Assay 1: displacement of RefA on human AD brain sections (fluorescence)). Conditions: 1 μM RefA vs. 250 μM compound.
Type: binding
Protocol: (§1) Direct Binding of Compounds of this Invention to Human Alzheimer's Disease Brain Sections and/or Displacement of RefA and Compound B
(§2) Frozen sections with a thickness of […] from the amygdala of donors diagnosed with Braak stage V-VI Alzheimer's Disease (Braak, H.; Braak, E. Acta Neuropathol., 1991, 82, 239-259), were purchased from a commercial provider (Tissue Solutions) and kept at −80° C. until use.
Displacement of RefA and Compound B
Brain sections were mainly treated as described above. Test compounds were, however, incubated on the section at 250 μM in 50% ethanol for 20 min at room temperature, and then directly incubated with the fluorescent reference compounds RefA and Compound B, each at 1 μM in 50% ethanol for 20 min at room temperature. RefA and Compound B stainings were visualized using the 470 nm and 365 nm excitation filters, respectively. Images were acquired, and tangles and plaques quantified using the NIS-Element software. Only those compounds not directly staining tangles or plaques at the same wavelengths as RefA and Compound B were tested in the displacement assay.
Structure of RefA (Tago et al., J. Label. Compd. Radiopharm. 2013, DOI: 10.1002/jlcr.3133)

Competition on AD brain section tau tangles (1 μM RefA vs. 250 μM compound) | Structure (SMILES)
91% | Cn1c2ccncc2c2ccc(Nc3cnn(CCF)c3)nc21 [Example 40]
39% | Cn1c2ccncc2c2ccc(Nc3cnn(CCCCF)c3)nc21 [Example 45]
55% | Cn1c2ccncc2c2ccc(Nc3ccnn3CCF)nc21 [Example 46]
89% | Cn1c2ccncc2c2ccc(Nc3ccn(CCF)n3)nc21 [Example 47]
91% | Cn1c2ccncc2c2ccc(Nc3cccc(NCCF)n3)nc21 [Example 78]

The compounds below were run on tau tangles/Aβ plaques on AD brain sections (assay: Assay 1: direct staining of human Alzheimer's disease brain sections (fluorescence)). Conditions: 100 μM compound; human AD brain sections; fluorescence; cell does not say tangles or plaques.
Type: binding
Design: key to Direct staining of tau tangles/Aβ plaques on AD brain sections at 100 μM / Direct staining of tau tangles on AD brain sections at 100 μM / Direct staining of Aβ plaques on AD brain sections at 100 μM / Direct staining of tau tangles on AD brain sections (footnote a: at 250 μM): − (No); +++ (strong); ++ (good); + (weak)
Protocol: Assay 1 (Fluorescence Based Assay):
as §1, §2
Direct Staining of Human Alzheimer's Disease Brain Sections
Brain sections were encircled with pap pen liquid blocker to reduce the volume of solution for the different incubations. Sections were fixed for 15 min at 4° C. with 4% paraformaldehyde and washed three times 5 minutes with PBS at room temperature. […] To reduce the auto-fluorescence of the tissue, the sections were incubated in a solution of 0.1% Sudan Black (Sigma 199664) in 70% ethanol for 15 min at room temperature in the dark, washed four times for 5 minutes with PBS, and mounted using ProLong Gold Antifade reagent (Invitrogen P36930). Sections were then analyzed on the Nikon Eclipse Ti microscope to detect staining and imaged using Nikon DS-Fi2 camera and NIS-Element AR4.13.1 software.

Structure (SMILES) | Direct staining of tau tangles/Aβ plaques on AD brain sections at 100 μM
Cn1c2ccncc2c2ccc(Nc3cnn(CCCCF)c3)nc21 [Example 45] | −
Cn1c2ccncc2c2ccc(Nc3ccnn3CCF)nc21 [Example 46] | −
OCCn1c2ccncc2c2ccc(Nc3cccc(OCCF)c3)nc21 [Example 165] | −
OCCn1c2ccncc2c2ccc(Nc3ccc(F)c(F)c3)nc21 [Example 166] | −
COCCOCCn1c2ccncc2c2ccc(Nc3cccc(OCCF)c3)nc21 [Example 167] | −
Cn1c2c(c3ccc(Nc4ccc(N5CCOCC5)cc4)nc31)C(=O)NCC2 [Example 173] | −
Cn1c2c(c3ccc(Nc4ccc(C#N)c(OCCF)c4)nc31)C(=O)NCC2 [Example 176] | −
Cn1c2c(c3ccc(Nc4ccc(OCCF)cc4)nc31)C(=O)NCC2 [Example 177] | −
Cn1c2c(c3ccc(Nc4cccc(OCCF)c4)nc31)C(=O)NCC2 [Example 178] | −
COc1cc(Nc2ccc3c4c(n(C)c3n2)CCNC4=O)ccc1F [Example 180] | −
CN1CCc2c(c3ccc(Nc4ccc(F)nc4)nc3n2C)C1=O [Example 182] | −
Cn1c2c(c3ccc(Nc4ccc5nsnc5c4)nc31)C(=O)N(CCF)CC2 [Example 188] | −
CN1CCc2c(c3ccc(Nc4ccn(CCF)n4)nc3n2C)C1=O [Example 190] | −
CN1CCc2c(c3ccc(Nc4cnn(CCCF)c4)nc3n2C)C1=O [Example 191] | −
Cn1c2cc[nH]c(=O)c2c2ccc(Nc3cccc(OC(F)F)c3)nc21 [Example 193] | −
Cn1ccc2c(c1=O)c1ccc(Nc3ccc(F)c(F)c3)nc1n2C [Example 194] | −
CN1CCc2c(c3ccc(N4CCC[C@@H](F)C4)nc3n2C)C1=O [Example 196] | −
CN1CCc2c(c3ccc(Nc4ccc(OCCF)c(F)c4)nc3n2C)C1=O [Example 198] | −
CN1CCc2c(c3ccc(Nc4ccc(O)c(F)c4)nc3n2C)C1=O [Example 202] | −
CN1CCc2c(c3ccc(Nc4ccc(F)c(O)c4)nc3n2C)C1=O [Example 203] | −
CN1CCc2c(c3ccc(Nc4ccnc(OCCF)c4)nc3n2C)C1=O [Example 204] | −
Cn1c2c(c3ccc(Nc4ccnc(OCCF)c4)nc31)C(=O)NCC2 [Example 205] | −
CN1CCc2c(c3ccc(Nc4ccc(OCCF)cn4)nc3n2C)C1=O [Example 206] | −
Cn1c2c(c3ccc(Nc4ccc(OCCF)cn4)nc31)C(=O)NCC2 [Example 207] | −
Cn1c2c(c3ccc(Nc4cc(OCCF)ccn4)nc31)C(=O)NCC2 [Example 208] | −
CN1CCc2c(c3ccc(Nc4cccc(OCCF)n4)nc3n2C)C1=O [Example 209] | −
Cn1c2c(c3ccc(Nc4cccc(OCCF)n4)nc31)C(=O)NCC2 [Example 210] | −
CN1CCc2c(c3ccc(Nc4ccc(F)c([N+](=O)[O-])c4)nc3n2C)C1=O [Example 211] | −
CN1CCc2c(c3ccc(Nc4ccc(F)c([N+](C)(C)C)c4)nc3n2C)C1=O [Example 212] | −

Same assay, conditions: 100 μM compound; plaques

Structure (SMILES) | Direct staining of Aβ plaques on AD brain sections at 100 μM
Cn1c2c(c3ccc(Nc4ccc(F)c(F)c4)nc31)C(=O)N(CCF)CC2 [Example 183] | + (plaques)
Cn1c2c(c3ccc(Nc4cccc(F)n4)nc31)C(=O)NCC2 [Example 184] | + (plaques)
CN1CCc2c(c3ccc(Nc4cccc(F)n4)nc3n2C)C1=O [Example 185] | + (plaques)
Cn1c2c(c3ccc(Nc4cnn(CCF)c4)nc31)C(=O)NCC2 [Example 186] | + (plaques)
Cn1c2c(c3ccc(Nc4ccc(OCCF)c(F)c4)nc31)C(=O)NCC2 [Example 199] | + (tangles) + (plaques)
CN1CCc2c(c3ccc(Nc4ccc(F)c(OCCF)c4)nc3n2C)C1=O [Example 200] | + (tangles) + (plaques)

Same assay, conditions: 100 μM compound; tangles

Structure (SMILES) | Direct staining of tau tangles on AD brain sections at 100 μM
Cn1c2ccncc2c2ccc(Nc3cnn(CCF)c3)nc21 [Example 40] | +++ (tangles)
Cn1c2ccncc2c2ccc(Nc3ccn(CCF)n3)nc21 [Example 47] | ++ (tangles)
Cn1c2ccncc2c2ccc(Nc3cccc(NCCF)n3)nc21 [Example 78] | ++ (tangles)
Cn1c2c(c3ccc(Nc4ccc(C#N)c(F)c4)nc31)C(=O)NCC2 [Example 179] | + (tangles)
COc1cc(Nc2ccc3c4c(n(C)c3n2)CCNC4=O)ccn1 [Example 181] | + (tangles)
Cn1c2c(c3ccc(Nc4ccc(C#N)c(F)c4)nc31)C(=O)N(CCF)CC2 [Example 187] | + (tangles)
Cn1c2c(c3ccc(Nc4ccc(OCCF)c(F)c4)nc31)C(=O)NCC2 [Example 199] | + (tangles) + (plaques)
CN1CCc2c(c3ccc(Nc4ccc(F)c(OCCF)c4)nc3n2C)C1=O [Example 200] | + (tangles) + (plaques)

Same assay, conditions: 100 μM in 50% ethanol, 20 min; "(tangles)" beside the symbol = tangles stained

Structure (SMILES) | Direct staining of tau tangles/Aβ plaques on AD brain sections at 100 μM
Cn1c2c(c3ccc(Nc4ccc(F)c(F)c4)nc31)C(=O)N(CCO)CC2 [Example 215] | −
CN(C)C(=O)CCc1ccc(/C=C2/C=CC(c3cccs3)N2)n1B(F)F (stereo not drawn) [Prep. Example 17, reference compound] | −
COc1ccc(C2C(CCC(=O)NCCCCCC(=O)N(C)C)=C/C(=C/c3[nH]c(C)cc3C)N2B(F)F)cc1 (stereo not drawn) [Prep. Example 18, reference compound] | −
